Assay results reported in ChEMBL document CHEMBL3351877, “Synthesis and identification of α-cyano bis(indolyl)chalcones as novel anticancer agents” (Bioorg Med Chem Lett, 2014).
Active and inactive are the calls of the source. No cut-off for these calls is given here.

Assays:
Tubulin (Sus scrofa) = Tubulin (Sus scrofa) (UniProt P02554+P02550); experiment: Induction of porcine brain tubulin polymerization at 5 uM incubated for 10 to 40 mins by spectrophotometry
A549 [1] = experiment: Cytotoxicity against human A549 cells assessed as reduction in cell viability after 24 hrs by WST8 assay; format: functional, cell-based; settings: A549, 24 h
[2] = Cytotoxicity against human MIAPaCa2 cells assessed as reduction in cell viability after 24 hrs by WST8 assay; format: functional, cell-based; settings: MIA PaCa-2, 24 h
A549 [3] = experiment: Cytotoxicity against human A549 cells assessed as reduction in cell viability after 48 hrs by WST8 assay; format: functional, cell-based; settings: A549, 48 h
[4] = Cytotoxicity against human PC3 cells assessed as reduction in cell viability after 24 hrs by WST8 assay; format: functional, cell-based; settings: PC-3, 24 h
[5] = Cytotoxicity against human PC3 cells assessed as reduction in cell viability after 48 hrs by WST8 assay; format: functional, cell-based; settings: PC-3, 48 h
[6] = Cytotoxicity against human MIAPaCa2 cells assessed as reduction in cell viability after 48 hrs by WST8 assay; format: functional, cell-based; settings: MIA PaCa-2, 48 h

Tubulin (Sus scrofa), sequence (P02550 whole entry, looked up): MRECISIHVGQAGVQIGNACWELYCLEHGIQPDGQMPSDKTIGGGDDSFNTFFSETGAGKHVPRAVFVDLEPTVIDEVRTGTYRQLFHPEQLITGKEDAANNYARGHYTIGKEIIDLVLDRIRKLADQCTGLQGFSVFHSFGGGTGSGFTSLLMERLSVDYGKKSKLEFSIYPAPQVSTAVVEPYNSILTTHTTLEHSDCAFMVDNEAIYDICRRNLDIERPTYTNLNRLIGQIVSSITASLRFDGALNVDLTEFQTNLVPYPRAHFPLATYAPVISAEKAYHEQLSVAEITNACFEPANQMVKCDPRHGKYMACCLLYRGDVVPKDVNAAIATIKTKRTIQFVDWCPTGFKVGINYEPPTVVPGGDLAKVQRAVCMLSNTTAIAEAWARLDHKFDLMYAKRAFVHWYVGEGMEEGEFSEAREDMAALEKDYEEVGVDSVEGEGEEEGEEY
Tubulin (Sus scrofa), sequence (P02554 whole entry, looked up): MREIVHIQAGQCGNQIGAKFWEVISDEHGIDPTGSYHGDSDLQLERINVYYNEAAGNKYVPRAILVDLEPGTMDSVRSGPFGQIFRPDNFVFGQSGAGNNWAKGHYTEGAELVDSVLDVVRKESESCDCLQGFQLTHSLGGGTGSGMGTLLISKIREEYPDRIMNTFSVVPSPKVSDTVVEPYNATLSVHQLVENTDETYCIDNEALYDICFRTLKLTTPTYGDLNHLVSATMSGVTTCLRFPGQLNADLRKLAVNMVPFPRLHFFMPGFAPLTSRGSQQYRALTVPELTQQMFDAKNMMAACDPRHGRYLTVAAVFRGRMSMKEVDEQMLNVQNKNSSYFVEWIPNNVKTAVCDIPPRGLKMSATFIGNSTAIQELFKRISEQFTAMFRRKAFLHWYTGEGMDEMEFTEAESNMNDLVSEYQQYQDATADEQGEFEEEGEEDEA

SMILES | Activity (Tubulin (Sus scrofa)) | IC50 (A549 [1]) | IC50 [2] | IC50 (A549 [3]) | IC50 [4] | IC50 [5] | IC50 [6]
COc1ccc2c(/C=C(\C#N)C(=O)c3c[nH]c4cc(OC)ccc34)c[nH]c2c1 | Active | 1.9 µM | > 50 µM | 1.7 µM | > 50 µM | 27 µM | > 50 µM
Cn1cc(/C=C(\C#N)C(=O)c2c[nH]c3ccccc23)c2ccccc21 |  | 27.9 µM | 31.6 µM | > 50 µM | > 50 µM | > 50 µM | > 50 µM
COc1ccc(Cn2cc(/C=C(\C#N)C(=O)c3c[nH]c4cc(F)ccc34)c3ccccc32)cc1 |  | > 50 µM | > 50 µM | 36.3 µM | > 50 µM | > 50 µM | 29.4 µM
COc1ccc2[nH]cc(C(=O)/C(C#N)=C/c3c[nH]c4cc(F)ccc34)c2c1 |  | > 50 µM | > 50 µM | > 50 µM | > 50 µM | > 50 µM | > 50 µM
N#C/C(=C\c1cn(Cc2ccc(Cl)cc2)c2ccccc12)C(=O)c1c[nH]c2cc(F)ccc12 |  | > 50 µM | > 50 µM | > 50 µM | > 50 µM | > 50 µM | 16.6 µM
COc1ccc(-c2[nH]c3ccccc3c2/C=C(\C#N)C(=O)c2c[nH]c3ccccc23)cc1 |  | 4.9 µM | 24 µM | 3 µM | 17.2 µM | 8.1 µM | > 50 µM
N#C/C(=C\c1cn(Cc2ccc(Cl)cc2)c2ccccc12)C(=O)c1c[nH]c2ccccc12 |  | > 50 µM | > 50 µM | > 50 µM | > 50 µM | > 50 µM | > 50 µM
COc1ccc(Cn2cc(/C=C(\C#N)C(=O)c3c[nH]c4cc(OC)ccc34)c3ccccc32)cc1 | Active | 37.4 µM | > 50 µM | 28.9 µM | > 50 µM | > 50 µM | > 50 µM
COc1ccc2[nH]cc(/C=C(\C#N)C(=O)c3c[nH]c4cc(F)ccc34)c2c1 |  | 18 µM | > 50 µM | 26.3 µM | > 50 µM | > 50 µM | > 50 µM
N#C/C(=C\c1c[nH]c2ccccc12)C(=O)c1c[nH]c2ccccc12 |  | 16.1 µM | 17.9 µM | 22 µM | > 50 µM | > 50 µM | 36.8 µM
COc1ccc2c(C(=O)/C(C#N)=C/c3c[nH]c4ccccc34)c[nH]c2c1 | Active | 6.4 µM | 13.5 µM | 7.5 µM | > 50 µM | 12 µM | > 50 µM
COc1ccc2c(/C=C(\C#N)C(=O)c3c[nH]c4ccccc34)c[nH]c2c1 |  | 9.6 µM | 27.5 µM | 5.8 µM | 33.3 µM | 12.5 µM | > 50 µM
CO[C@@]12[C@H](COC(N)=O)C3=C(C(=O)C(C)=C(N)C3=O)N1C[C@@H]1N[C@@H]12 [MITOMYCIN] |  | 0.45 µM |  |  |  |  | 
N#C/C(=C\c1cn(Cc2ccc(Cl)cc2)c2ccc(Br)cc12)C(=O)c1c[nH]c2ccccc12 |  | 14 µM | 37.7 µM | 24.9 µM | 47.1 µM | 36.5 µM | > 50 µM
COc1ccc2c(C(=O)/C(C#N)=C/c3c[nH]c4cc(F)ccc34)c[nH]c2c1 |  | 2.4 µM | > 50 µM | 0.8 µM | 36 µM | 22.5 µM | > 50 µM
COc1ccc2c(/C=C(\C#N)C(=O)c3c[nH]c4cc(F)ccc34)c[nH]c2c1 |  | 10.3 µM | > 50 µM | 5.5 µM | > 50 µM | 21.4 µM | > 50 µM
COc1ccc2[nH]cc(/C=C(\C#N)C(=O)c3c[nH]c4ccccc34)c2c1 |  | 6.6 µM | 21.2 µM | 13.7 µM | 33.2 µM | 30.5 µM | 25.1 µM
COc1ccc2c(C(=O)/C(C#N)=C/c3cn(Cc4ccc(Cl)cc4)c4ccccc34)c[nH]c2c1 |  | > 50 µM | > 50 µM | > 50 µM | > 50 µM | > 50 µM | 40.4 µM
COc1ccc(Cn2cc(/C=C(\C#N)C(=O)c3c[nH]c4ccccc34)c3ccccc32)cc1 |  | > 50 µM | > 50 µM | > 50 µM | > 50 µM | > 50 µM | > 50 µM
COc1ccc2c(C(=O)/C(C#N)=C/c3c[nH]c4ccc(OC)cc34)c[nH]c2c1 |  | 3.7 µM | > 50 µM | 5.5 µM | 31.1 µM | 37.1 µM | > 50 µM
N#C/C(=C\c1c[nH]c2cc(F)ccc12)C(=O)c1c[nH]c2ccccc12 |  | 17 µM | 23.5 µM | 22.7 µM | > 50 µM | > 50 µM | 31.6 µM
N#C/C(=C\c1c[nH]c2ccc(Br)cc12)C(=O)c1c[nH]c2ccc(Br)cc12 |  | > 50 µM | > 50 µM | > 50 µM | > 50 µM | > 50 µM | > 50 µM
N#C/C(=C\c1c[nH]c2cc(F)ccc12)C(=O)c1c[nH]c2cc(F)ccc12 |  | > 50 µM | > 50 µM | 36.1 µM | > 50 µM | > 50 µM | > 50 µM
COc1ccc2[nH]cc(/C=C(\C#N)C(=O)c3c[nH]c4ccc(OC)cc34)c2c1 |  | > 50 µM | 28.5 µM | 24.5 µM | > 50 µM | > 50 µM | > 50 µM
